Experimental data published in patent US20110144213A1, “ANHYDROUS DEPIGMENTING COMPOSITIONS COMPRISING A SOLUBILIZED PHENOLIC COMPOUND” (priority 2008, published 2011).
Where two headings read alike, the source gives them in different places.

Legend:
[1] = cited from earlier work
[2] = Stability of the active agents in solvent oils and lipophilic surfactants (HPLC assay against reference substance, colour); format: physicochemical; settings: for Colour: 40° C.
Source text: Stability of Hydroquinone in Solvent Oils and Lipophilic Surfactants
Assay technique by HPLC against reference substance.
The initial time (T0) is considered as 100%
The above table makes it possible to evaluate the stability of hydroquinone in the various solubilizing agents identified previously.
Stability of Rucinol in Solvent Oils and Lipophlic Surfactants
The initial time (T0) is considered as 100%.
The table below makes it possible to evaluate the stability of rucinol in the solubilizing agents identified previously.

[3] = Max. solubility of the active agents in solvent oils, lipophilic surfactants and alcoholic or glycolic solvents (HPLC); format: physicochemical; settings: rucinol in all the solvents tested
Source text: a) Solubilities and Stabilities of Hydroquinone in Solvent Oils and Lipophilic Surfactants Hydroquinone Solubilities
The above table makes it possible to identify which solvents are the most solubilizing for the active agent, for optimum selection of the ingredients of the composition. However, the choice of solvent will also be made on the basis of the results of the stability of hydroquinone in these solvents. […]
b) Solubilities and Stabilities of Rucinol in Solvent Oils and Lipophilic Surfactants […]
However, the optimum choice of solvent will also be made on the basis of the results of the stability of rucinol in these solvents.

Row | Colour ([2]; hydroquinone in Ethanol/water (20/80), 1 MONTH) | Colour ([2]; hydroquinone in Glycerol, 1 MONTH) | Colour ([2]; hydroquinone in Propylene glycol, 3 MONTHS) | stability of hydroquinone (in words) ([2]; in Cremophor EL, browning that becomes pronounced over time and with temperature) | stability of hydroquinone (in words) ([2]; in Crodamol DA, Arlamol E and Labrasol, macroscopic observation of the colour) | stability of hydroquinone (in words) ([2]; in solvents of the prior art such as glycols, RT and 40° C., absence of antioxidants) | solubility (in words) [3] | SMILES | incidence of the irritation ([1]; 10% hydroquinone concentrations) | incidence of the irritation ([1]; concentration of 2%) | incidence of the irritation ([1]; preparations with a 5% dose)
1 | Dark | Dark | Dark | macroscopic instability | good chemical and physical stability | a colouration is observed |  | Oc1ccc(O)cc1 [Hydroquinone, hydroquinone] | relatively high | virtually nonexistent | reduces greatly
2 |  |  |  |  |  |  | very good solubility | CCCCc1ccc(O)cc1O [Rucinol, 4-butylresorcinol] |  |  | 
